Here are results for 1 compound from patent US9045491B2, “Thienyl [3,2-D] pyrimidin-4-one compounds, preparation method, pharmaceutical compositions and use thereof” (SHANGHAI INSTITUTE OF MATERIA MEDICA, CHINESE ACADEMY OF …, priority 2011, dated 2015).

Structures are written as SMILES.

One assay has as its target T1, DPP IV (Mus musculus, UniProt P28843).
T1 construct: from tissue; host or cells: plasma of ICR mouse
Briefly: DPP IV inhibitory activity in vivo: DPP IV activity in plasma of ICR mouse after single oral dose. To be noted: oral 3 mg/kg, compared with Alogliptin and Vildagliptin (LAF237), FIG. 1-6. Here is the method: Animals: ICR mouse (8-10 weeks old; sex: male; 25 g-30 g of body weight, purchased from Shanghai SLAC Laboratory Animal Center).
Meanwhile the solvent group was used as blank control. The blood was taken from orbital venous plexus of the mouse before administration, and 30, 60, 2 h, 4 h, 6 h, 8 h and […] after administration, respectively and loaded into Eppendorf tube (Qizhong Industrial (Shanghai) co., Ltd.) treated by anticoagulant. The plasma was obtained by centrifugation and DPP IV activity was determined.

In the next assay the test system is normal ICR mouse. Briefly: Oral glucose tolerance test (OGTT), acute hypoglycemic effect of single oral dose. It counts as in vivo. How it is done:
Acute hypoglycemic effect of single dose through mouth on the normal ICR mouse
Animal: ICR mouse (8-10 weeks old, sex: male, weight: 25-30 g, purchased from Shanghai SLAC Laboratory Animal Center).
1. Two days before the experiment, the food consumption was recorded and the daily food consumption of each animal was calculated;
2. The animals fasted overnight (⅓ of daily food consumption was provided, about 2 g);
3. The blood glucose was measured on the second day.
4. The medicament was administrated through gavage (1 mouse/min). After 6 hours, the blood glucose was measured. Glucose was administrated through gavage according to the body weight (2.5 g/kg). The blood glucose value was monitored at 30 min, 60 min, 90 min, and 120 min after administration.

T1 sequence (P28843 37-760 limits assumed): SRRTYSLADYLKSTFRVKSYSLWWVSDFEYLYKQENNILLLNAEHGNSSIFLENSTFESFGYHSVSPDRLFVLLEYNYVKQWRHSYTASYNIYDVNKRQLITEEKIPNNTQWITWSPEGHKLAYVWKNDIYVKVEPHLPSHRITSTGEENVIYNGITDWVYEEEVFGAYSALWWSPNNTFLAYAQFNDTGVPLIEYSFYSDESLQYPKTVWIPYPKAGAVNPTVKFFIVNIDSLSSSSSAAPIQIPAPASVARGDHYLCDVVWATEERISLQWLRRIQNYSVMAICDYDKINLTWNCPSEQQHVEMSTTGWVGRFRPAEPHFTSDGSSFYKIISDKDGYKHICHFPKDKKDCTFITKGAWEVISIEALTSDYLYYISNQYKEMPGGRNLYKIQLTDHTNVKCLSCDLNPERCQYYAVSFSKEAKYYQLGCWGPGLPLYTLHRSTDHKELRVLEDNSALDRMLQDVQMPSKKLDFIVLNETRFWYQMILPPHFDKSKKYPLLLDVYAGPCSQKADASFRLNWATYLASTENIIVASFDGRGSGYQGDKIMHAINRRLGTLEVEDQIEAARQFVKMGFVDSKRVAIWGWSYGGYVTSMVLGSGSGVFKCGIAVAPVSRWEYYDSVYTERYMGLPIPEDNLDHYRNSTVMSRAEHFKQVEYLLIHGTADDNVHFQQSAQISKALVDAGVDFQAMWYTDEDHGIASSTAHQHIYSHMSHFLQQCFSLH

Turning to `COC(=O)c1cc2nc(N3CCCC(N)C3)n(Cc3ccccc3C#N)c(=O)c2s1` (stereo not drawn) [DC291407], at DPP IV, the “DPP IV activity of ICR mouse plasma after single dose (given as hypoglycemic ability in vivo)” value was “comparable to that of Alogliptin (3 mg), and better than that of Vildagliptin (LAF237, 15 mg)”. For the same compound, the “hypoglycemic ability in vivo, oral glucose tolerance test after multiple single-dose administration” value in the assay with normal ICR mouse (single administration at multiple doses, FIGS. 11-12) is given as “comparable to that of Alogliptin”. In addition, in the assay on normal ICR mouse (single dose 3 mg/kg by gavage, glucose 2.5 g/kg after 6 hours, FIGS. 7-10), the “hypoglycemic ability in vivo, oral glucose tolerance test” value was “comparable to that of Alogliptin”.
